# Test results: publication PMC12388126, “Photochemically Assisted Synthesis of Thienobenzotriazole-Based Dual Cholinesterase Inhibitors” (Molecules, 2025)
# Where two headings read alike, the source gives them in different places.
# Key:
# [1] = molecular target: T1, butyrylcholinesterase (BChE) (Equus caballus, UniProt P81908); experiment: BChE inhibition, modified Ellman method; type: biochemical
# T1 construct: BChE (extracted from equine serum); purchased Sigma-Aldrich; host or cells: equine serum (natural source)
# T1 sequence (P81908 whole entry): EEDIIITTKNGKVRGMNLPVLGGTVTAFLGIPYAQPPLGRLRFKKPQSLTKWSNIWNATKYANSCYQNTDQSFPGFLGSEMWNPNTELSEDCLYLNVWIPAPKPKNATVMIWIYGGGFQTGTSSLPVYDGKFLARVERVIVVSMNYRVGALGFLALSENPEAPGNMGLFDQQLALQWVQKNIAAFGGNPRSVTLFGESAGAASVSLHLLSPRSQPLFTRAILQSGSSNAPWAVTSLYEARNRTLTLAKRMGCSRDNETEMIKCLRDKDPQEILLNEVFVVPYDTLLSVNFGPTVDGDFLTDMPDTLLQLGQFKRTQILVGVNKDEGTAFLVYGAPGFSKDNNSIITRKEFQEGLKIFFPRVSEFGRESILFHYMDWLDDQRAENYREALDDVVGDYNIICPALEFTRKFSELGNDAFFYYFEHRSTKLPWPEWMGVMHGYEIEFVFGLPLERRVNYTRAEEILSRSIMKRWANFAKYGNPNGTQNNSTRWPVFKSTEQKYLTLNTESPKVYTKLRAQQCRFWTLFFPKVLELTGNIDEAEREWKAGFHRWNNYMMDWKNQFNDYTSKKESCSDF
# Experimental: (§1) Building on the previously promising in vitro results of thienobenzo-1,2,3-triazolinium salts against cholinesterases, research was extended to a series of structurally related bromide salts. The inhibitory effects of a new set of triazolinium salts (1–4, 7–11, 14–17) on the activities of acetylcholinesterase (AChE) and butyrylcholinesterase (BChE) are summarized in Table 1. Their inhibitory activity was assessed using a modified Ellman method over a wide concentration range (0.01–250 μM). The IC50 values listed in Table 1 are relative IC50 values, obtained directly from the nonlinear regression analysis of the inhibition curves under defined test conditions. For reference, the inhibitory effect at the highest tested concentration is also reported. The results were compared with galantamine, a well-known cholinesterase inhibitor used in the treatment of Alzheimer’s disease.
# (§2) The inhibitory effects of the new synthesized thiabenzo-1,2,3-triazolinium bromide salts, 1–4, 7–11, and 14–17, on acetylcholinesterase (AChE) and butyrylcholinesterase (BChE) activity were evaluated using the modified Ellman’s method.
# (§3) DTNB, ATChI, and BTChI were prepared in 50 mM Tris buffer (pH 8.0), while the enzymes were made in 20 mM Tris buffer (pH 7.5). Using a 96-well microplate reader (Agilent, BioTek 800TS, Santa Clara, CA, USA), cholinesterase activity was assessed. Amounts of 180 μL of 50 mM Tris buffer, 10 μL of tested solutions with final concentrations ranging from 0.01 to 250 μM, and 10 μL of an enzyme with a final concentration of 0.03 U/mL were added to the microplate well, which was then left to incubate for 15 min at room temperature. Following incubation, 10 μL of DTNB (final concentration: 0.3 mM) and […] of ATChI/BTChI (final concentration: 0.5 mM) were added to the reaction mixture. After four minutes, the absorbance was measured at 405 nm. Non-enzymatic hydrolysis was assessed as a blank for the control measurement in the absence of inhibitors and enzymes. The samples were tested using the non-enzymatic hydrolysis procedure with an additional inhibitor as a blank. The enzyme was swapped out for the same amount of buffer.
# (§4) The inhibition % was determined using the following formula: Inhibition (%) = [(AC − AT)/AC] × 100, where AC is the activity of the enzyme without a test sample and AT is the activity of the enzyme with a test sample. The mean values ± standard deviation are used to illustrate the results. Inhibitory activity of ethanol was deducted from each sample. A nonlinear fit of compound concentration values vs. response was used to determine the IC50 values. Each trazolinium salt was tested against both enzymes in triplicate.
# [2] = molecular target: acetylcholinesterase (AChE) (Electrophorus electricus, UniProt O42275); experiment: AChE inhibition, modified Ellman method; type: biochemical; details: for inhibition at 250 µM / inhibition at 100 µM / inhibition at 50 µM: read-out: AChE Inhibition (%); for IC50: relative IC50 from nonlinear regression, tested 0.01–250 μM
# Sequence of acetylcholinesterase (AChE) (O42275 24-633): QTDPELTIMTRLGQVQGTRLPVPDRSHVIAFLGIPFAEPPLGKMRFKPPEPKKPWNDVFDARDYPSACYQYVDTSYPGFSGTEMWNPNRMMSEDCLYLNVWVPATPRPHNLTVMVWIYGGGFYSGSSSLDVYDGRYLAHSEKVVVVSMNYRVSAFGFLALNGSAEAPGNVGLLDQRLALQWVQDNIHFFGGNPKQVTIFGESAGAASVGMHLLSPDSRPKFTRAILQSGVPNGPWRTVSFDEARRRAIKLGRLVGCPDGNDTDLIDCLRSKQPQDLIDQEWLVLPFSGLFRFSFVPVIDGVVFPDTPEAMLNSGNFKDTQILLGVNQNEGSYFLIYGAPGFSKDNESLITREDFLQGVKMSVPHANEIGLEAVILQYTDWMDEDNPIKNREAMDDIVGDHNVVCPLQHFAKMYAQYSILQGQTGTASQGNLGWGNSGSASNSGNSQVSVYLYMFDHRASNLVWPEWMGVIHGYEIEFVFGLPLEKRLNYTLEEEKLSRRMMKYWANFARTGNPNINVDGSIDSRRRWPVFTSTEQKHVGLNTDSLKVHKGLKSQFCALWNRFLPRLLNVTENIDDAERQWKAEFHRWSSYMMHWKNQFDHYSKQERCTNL
# Experimental: as §1, §2, §3, §4
# BChE = system: BChE; set-up: method as in PMID 40732321; details: cited from earlier work
# PBMCs = experiment: Cell viability of PBMCs (CellTiter-Glo); type: cell-based; details: LPS-stimulated PBMCs, 24 h
# Experimental: The effect of compounds on tumor necrosis factor alpha (TNFα) production in lipopolysaccharide (LPS)-stimulated peripheral blood mononuclear cells (PBMCs) was evaluated as described previously. In short, PBMCs were isolated from buffy coats obtained from healthy adult volunteers and resuspended in RPMI1640 medium (Capricorn Scientific, Ebsdorfergrundu, Germany) supplemented with 10% heat-inactivated FBS (Biowest, Nuailléu, France), 1% GlutaMAX (Gibco, St. Louis, MO, USA), and 1% Antibiotic-Antimycotic (Gibco, St. Louis, MO, USA). PBMCs were seeded as 2 × 10^5 per well of a 96-well plate. […]
# (§5) For cell viability evaluation, CellTiter-Glo reagent was used (Promega, Radoboj, Croatia) according to the manufacturer’s instructions. […] TNFα concentration in supernatants was measured by ELISA using antibodies and recombinant human TNFα protein (standard) from R&D Systems. […] Finally, after the plates were incubated with streptavidin HRP (Invitrogen, Thermo Fisher Scientific, Waltham, MA, USA), chemiluminescence ELISA Substrate (Roche, Zagreb, Croatia) was added to the wells and luminescence was measured using EnVision 2105 multilabel reader (Revvity, Waltham, MA, USA). Concentrations of TNFα in the supernatants were calculated using measured luminescence by interpolation from standard curves. […]
# [3] = system: LPS-stimulated TNFα production in PBMCs; experiment: TNFα production in LPS-stimulated PBMCs (ELISA); type: cell-based, human
# Experimental: The potential anti-inflammatory activity of compounds 1–4, 7–11, and 14–17 was also evaluated in vitro by the measurement of TNFα production in LPS-stimulated PBMCs. […] At lower concentrations that were not affecting cell viability, LPS-induced TNFα production was not changed. […] Compound 17 was active only at the highest tested concentration.
# The effect of compounds on tumor necrosis factor alpha (TNFα) production in lipopolysaccharide (LPS)-stimulated peripheral blood mononuclear cells (PBMCs) was evaluated as described previously. […]
# as §5
# [4] = system: LPS-induced TNF-α production; set-up: method as in PMID 40732321; details: read-out: IC50, inhibition of LPS-induced TNF-α production; cited from earlier work
# [5] = relative IC50 from nonlinear regression, tested 0.01–250 μM, read-out: BChE IC50
Compound,"IC50 [1, 5]",IC50 [2],inhibition at 25 µM ([1]; read-out: BChE Inhibition (%)),inhibition at 50 µM [2],further results
"CC=Cn1n[n+](Cc2ccc(Cl)cc2)c2ccc3sccc3c21 [Compound 16, 3-(4-chlorobenzyl)-1-(prop-1-en-1-yl)-1H-thieno[3′,2′:3,4]benzo[1,2-d][1–3]triazol-3-ium]",2300 nM,5400 nM,–,–,inhibition at 100 µM ([1]; read-out: BChE Inhibition (%)): 84.8 ± 0.8%; inhibition at 250 µM [2]: 82.6 ± 1.1%
C=CCn1n[n+](Cc2ccccc2)c2ccc3sccc3c21 [E],–,–,–,–,IC50 (BChE): 98 nM
"COc1cccc(Cn2n[n+](Cc3ccc(Cl)cc3)c3ccc4sccc4c32)c1 [Compound 7, 3-(4-chlorobenzyl)-1-(3-methoxybenzyl)-1H-thieno[3′,2′:3.4]benzo[1.2-d][1.2,3]triazol-3-ium bromide]",1000 nM,11800 nM,–,–,inhibition at 10 µM ([1]; read-out: BChE Inhibition (%)): 78.2 ± 0.4%; inhibition at 100 µM [2]: 79.4 ± 4.9%
"Cc1ccc(Cn2n[n+](Cc3ccc(C)cc3)c3ccc4sccc4c32)cc1 [Compound 9, 1.3-bis(4-methylbenzyl)-1H-thieno[3′,2′:3.4]benzo[1.2-d][1.2,3]triazol-3-ium bromide]",3500 nM,5700 nM,76.6 ± 0.4%,78.7 ± 0.6%,–
"Cc1cccc(Cn2n[n+](Cc3ccc(I)cc3)c3ccc4sccc4c32)c1 [Compound 3, 3-(4-iodobenzyl)-1-(3-methylbenzyl)-1H-thieno[3′,2′:3.4]benzo[1.2-d][1.2,3]triazol-3-ium bromide]",700 nM,5900 nM,–,76.7 ± 0.5%,inhibition at 50 µM ([1]; read-out: BChE Inhibition (%)): 84.9 ± 3.6%
"Cc1cccc(Cn2n[n+](Cc3ccccc3)c3ccc4sccc4c32)c1 [Compound 1, 3-benzyl-1-(3-methylbenzyl)-1H-thieno[3′,2′:3.4]benzo[1.2-d][1.2,3]triazol-3-ium bromide]",400 nM,6300 nM,83.9 ± 0.2%,78.6 ± 0.5%,–
"Cc1ccc(C[n+]2nn(Cc3cccc(C)c3)c3c4ccsc4ccc32)cc1 [Compound 2, 1-(3-methylbenzyl)-3-(4-methylbenzyl)-1H-thieno[3′,2′:3.4]benzo[1.2-d][1.2,3]triazol-3-ium bromide]",300 nM,4100 nM,–,82.1 ± 4.2%,inhibition at 2.5 µM ([1]; read-out: BChE Inhibition (%)): 77.6 ± 0.3%
"Cc1ccc(Cn2n[n+](Cc3ccc(Cl)cc3)c3ccc4sccc4c32)cc1 [Compound 10, 3-(4-chlorobenzyl)-1-(4-methylbenzyl)-1H-thieno[3′,2′:3.4]benzo[1.2-d][1.2,3]triazol-3-ium bromide]",1500 nM,6500 nM,79.9 ± 1.1%,–,inhibition at 100 µM [2]: 81.9 ± 0.6%
"CC=Cn1n[n+](Cc2ccc([N+](=O)[O-])cc2)c2ccc3sccc3c21 [Compound 17, 3-(4-nitrobenzyl)-1-(prop-1-en-1-yl)-1H-thieno[3′,2′:3,4]benzo[1,2-d][1–3]triazol-3-ium]",11400 nM,63800 nM,–,–,"effect on cell viability (PBMCs): no effect on cell viability; inhibition at 100 µM ([1]; read-out: BChE Inhibition (%)): 85.5 ± 0.5%; classification as AChE inhibitor ([2]; in words): weak AChE inhibitor; inhibition at 100 µM [2]: 62.6 ± 5.3%; effect on LPS-stimulated TNFα production ([3]; PBMCs, starting concentration 100 µM, three-fold dilutions): slightly inhibited LPS-stimulated TNFα production"
"Cc1ccc(Cn2n[n+](Cc3ccc([N+](=O)[O-])cc3)c3ccc4sccc4c32)cc1 [Compound 11, 1-(4-methylbenzyl)-3-(4-nitrobenzyl)-1H-thieno[3′,2′:3.4]benzo[1.2-d][1.2,3]triazol-3-ium bromide]",2700 nM,3200 nM,81.1 ± 1.7%,83.6 ± 2.1%,–
"Cc1ccc(Cn2n[n+](Cc3ccccc3)c3ccc4sccc4c32)cc1 [Compound 8, 3-benzyl-1-(4-methylbenzyl)-1H-thieno[3′,2′:3.4]benzo[1.2-d][1.2,3]triazol-3-ium bromide]",400 nM,2600 nM,–,80.7 ± 2.3%,inhibition at 10 µM ([1]; read-out: BChE Inhibition (%)): 83.6 ± 1%
Cc1ccc(C[n+]2nn(Cc3cccc(F)c3)c3c4ccsc4ccc32)cc1 [F],–,–,–,–,IC50 [4]: 660 nM
"C[C@@H]1C[C@H]2[C@@H]3CCC4=CC(=O)C=C[C@]4(C)[C@@]3(F)[C@@H](O)C[C@]2(C)[C@@]1(O)C(=O)CO [dexamethasone, reference compound]",–,–,–,–,"IC50 ([3]; Homo sapiens, PBMC, PBMCs from two donors, read-out: IC50, inhibition of LPS-stimulated TNFα production): 3.5 nM"
"Clc1cccc(Cn2n[n+](Cc3ccc(I)cc3)c3ccc4sccc4c32)c1 [Compound 4, 1-(3-chlorobenzyl)-3-(4-iodobenzyl)-1H-thieno[3′,2′:3.4]benzo[1.2-d][1.2,3]triazol-3-ium bromide]",800 nM,14200 nM,83.2 ± 0.9%,74.6 ± 5%,–
"CC=Cn1n[n+](Cc2ccc(C)cc2)c2ccc3sccc3c21 [Compound 15, 3-(4-methylbenzyl)-1-(prop-1-en-1-yl)-1H-thieno[3′,2′:3.4]benzo[1.2-d][1.2,3]triazol-3-ium]",900 nM,14400 nM,–,–,inhibition at 50 µM ([1]; read-out: BChE Inhibition (%)): 84 ± 0.7%; inhibition at 250 µM [2]: 82.3 ± 0.8%
"CC=Cn1n[n+](Cc2ccccc2)c2ccc3sccc3c21 [Compound 14, 3-benzyl-1-(prop-1-en-1-yl)-1H-thieno[3′,2′:3.4]benzo[1.2-d][1.2,3]triazol-3-ium bromide]",–,4300 nM,80.4 ± 2.9%,–,IC50 [1]: 1000 nM; inhibition at 100 µM [2]: 84.2 ± 0.5%
